A word on the Kd: it is the free concentration of one partner at which half of the binding sites on the other are occupied at equilibrium, for simple one-to-one binding.

This assay deals with T1, CMMBP (CmmC) (Arthrobacter globiformis, UniProt D2YYD8).
T1 construct: N-terminal 6xHis tag, pET-28b (NdeI/BamHI), E. coli Rosetta2 (DE3); structure domains span residues 31-421; tag cleavage not mentioned
T1 sequence (D2YYD8 26-421): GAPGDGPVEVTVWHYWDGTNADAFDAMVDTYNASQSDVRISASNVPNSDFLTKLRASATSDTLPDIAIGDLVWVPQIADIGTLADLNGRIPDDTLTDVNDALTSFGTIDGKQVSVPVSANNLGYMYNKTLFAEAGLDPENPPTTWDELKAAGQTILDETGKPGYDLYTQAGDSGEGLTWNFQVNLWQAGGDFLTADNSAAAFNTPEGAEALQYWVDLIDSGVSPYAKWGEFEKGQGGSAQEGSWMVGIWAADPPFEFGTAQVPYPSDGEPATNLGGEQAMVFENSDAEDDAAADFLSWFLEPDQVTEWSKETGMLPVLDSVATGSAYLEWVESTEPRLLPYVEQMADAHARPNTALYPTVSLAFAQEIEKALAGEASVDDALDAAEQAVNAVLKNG
Nature of the assay: isothermal titration calorimetry. It is filed as binding. Background: Isothermal titration calorimetry measures the heat released or taken up as one component is titrated into another.

In turn, `OC[C@H]1O[C@@H]2OC[C@H]3O[C@H](O[C@H]4[C@H](O)[C@@H](O)[C@@H](OC[C@H]5O[C@H](O[C@H]1[C@H](O)[C@H]2O)[C@H](O)[C@@H](O)[C@@H]5O)O[C@@H]4CO)[C@H](O)[C@@H](O)[C@@H]3O` [CMM, cyclo-{→6}-α-D-Glcp-(1→4)-α-D-Glcp-(1→6)-α-D-Glcp-(1→4)-α-D-Glcp-(1→)] registered a dissociation constant Kd of 9.6 nM.

For `OC[C@H]1O[C@H](O[C@H]2[C@H](O)[C@@H](O)[C@@H](OC[C@H]3O[C@H](O[C@H]4[C@H](O)[C@@H](O)C(O)O[C@@H]4CO)[C@H](O)[C@@H](O)[C@@H]3O)O[C@@H]2CO)[C@H](O)[C@@H](O)[C@@H]1O` (stereo partly drawn) [MM, α-maltosyl-(1→6)-maltose], the “Ka (×10^8 M^-1)” value (20 mM Tris-HCl pH 8.0, 25 °C, one-site model, printed in parentheses as not reliable (weak affinity, low c value)) is recorded as “(0.0022 ± 0.0014) × 10^8”.

These data come from publication PMC7676653, “Molecular analysis of cyclic α-maltosyl-(1→6)-maltose binding protein in the bacterial metabolic pathway” (PLoS ONE, 2020).
